Target: T1, Protein mono-ADP-ribosyltransferase TIPARP (Homo sapiens, UniProt Q7Z3E1)
T1 sequence (Q7Z3E1 whole entry): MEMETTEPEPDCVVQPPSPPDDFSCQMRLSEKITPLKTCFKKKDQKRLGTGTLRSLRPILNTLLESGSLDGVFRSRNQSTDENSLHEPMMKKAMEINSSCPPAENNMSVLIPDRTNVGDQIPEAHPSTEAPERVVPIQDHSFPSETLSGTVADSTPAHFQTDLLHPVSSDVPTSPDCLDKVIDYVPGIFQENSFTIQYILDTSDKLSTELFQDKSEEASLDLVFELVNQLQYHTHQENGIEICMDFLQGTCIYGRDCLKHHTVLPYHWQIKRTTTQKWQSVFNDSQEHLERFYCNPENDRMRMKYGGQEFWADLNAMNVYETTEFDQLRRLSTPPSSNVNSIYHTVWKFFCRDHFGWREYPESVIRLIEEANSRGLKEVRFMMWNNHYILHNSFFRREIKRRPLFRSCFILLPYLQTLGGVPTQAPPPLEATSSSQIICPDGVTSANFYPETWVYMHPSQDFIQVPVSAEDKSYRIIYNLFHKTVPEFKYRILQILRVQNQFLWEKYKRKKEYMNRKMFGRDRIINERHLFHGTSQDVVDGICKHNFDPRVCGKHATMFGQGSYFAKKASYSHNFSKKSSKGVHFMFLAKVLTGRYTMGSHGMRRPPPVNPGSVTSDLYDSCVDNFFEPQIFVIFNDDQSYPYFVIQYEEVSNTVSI
Test: Enzymatic Assay for Inhibition of PARP7
Experimental: Displacement of Probe A, a biotinylated probe binding to the TIPARP active site, was measured using a time-resolved fluorescence energy transfer (TR-FRET) assay. 20 nL of a dose response curve of each test compound was spotted in black 384-well polystyrene proxiplates (Perkin Elmer) using a Mosquito (TTP Labtech). Reactions were performed in a 8 μL volume by adding 6 μL of TIPARP and Probe A in assay buffer (20 mM HEPES pH=8, 100 mM NaCl, 0.1% bovine serum albumin, 2 mM DTT and 0.002% Tween20), incubating with test compound at 25° C. for 30 min, then adding 2 μL of ULight-anti 6×His and LANCE Eu-W1024 labeled streptavidin (Perkin Elmer). The final concentrations of TIPARP and Probe A were 6 nM and 2 nM, respectively. […] The Hill Coefficient is normally allowed to float but may also be fixed at 1 in a 3-parameter fit. Y is the % inhibition and x is the compound concentration.

| IC50 | SMILES |
| --- | --- |
| > 1000 nM | O=C(c1cncc(OC[C@H]2c3ccccc3CN2c2cn[nH]c(=O)c2C(F)(F)F)c1)N1CCn2c(nnc2C(F)(F)F)C1 [US10550105, Example 372] |
| in the range around 550 nM | C[C@@H](OCCC(=O)N1CCN(c2ccc(C#N)cn2)CC1)[C@@H]1CCCN1c1cn[nH]c(=O)c1C(F)(F)F [US10550105, Example 140B] |
| < 100 nM | N#Cc1ccc(N2CCN(C(=O)/C=C\COC[C@@H]3c4ccccc4CN3c3cn[nH]c(=O)c3C(F)(F)F)CC2)nc1 [US10550105, Example 79D] |
| < 100 nM | N#Cc1ccc(N2CCN(C(=O)/C=C\COC[C@H]3c4ccccc4CN3c3cn[nH]c(=O)c3C(F)(F)F)CC2)nc1 [US10550105, Example 79C] |
| < 100 nM | O=C(c1cncc(OCC2c3ccccc3CN2c2cn[nH]c(=O)c2C(F)(F)F)c1)N1CCn2ncnc2C1 (stereo not given) [US10550105, Example 398] |

Source: BindingDB's records for patent US10550105 (Ribon Therapeutics, 2020)
